Test results as given in US20060183902A1, “Dihydroindolyl methanones as alpha 1a/1d adrenoreceptor modulators for the treatment of benign prostatic hypertrophy and lower urinary tract symptoms” (priority 2005, published 2006).
Several values for one entry are separate records, joined by “and”; a condition that tells them apart may be missing. Equal values may be shown once. Read-outs that look alike come from different tables or passages of the source.

How the values were obtained:
[1] = target: T1, α1b-AR (Homo sapiens, UniProt P35368); assay: α1-Adrenergic receptor radio-ligand (125I-HEAT) binding assay, α1b subtype; conditions: COS-7 cell membranes transfected with α1b-AR, 125I-HEAT 50 pM
T1 construct: expressed in transfected cells; host or cells: COS-7
T1 sequence (P35368 1-520): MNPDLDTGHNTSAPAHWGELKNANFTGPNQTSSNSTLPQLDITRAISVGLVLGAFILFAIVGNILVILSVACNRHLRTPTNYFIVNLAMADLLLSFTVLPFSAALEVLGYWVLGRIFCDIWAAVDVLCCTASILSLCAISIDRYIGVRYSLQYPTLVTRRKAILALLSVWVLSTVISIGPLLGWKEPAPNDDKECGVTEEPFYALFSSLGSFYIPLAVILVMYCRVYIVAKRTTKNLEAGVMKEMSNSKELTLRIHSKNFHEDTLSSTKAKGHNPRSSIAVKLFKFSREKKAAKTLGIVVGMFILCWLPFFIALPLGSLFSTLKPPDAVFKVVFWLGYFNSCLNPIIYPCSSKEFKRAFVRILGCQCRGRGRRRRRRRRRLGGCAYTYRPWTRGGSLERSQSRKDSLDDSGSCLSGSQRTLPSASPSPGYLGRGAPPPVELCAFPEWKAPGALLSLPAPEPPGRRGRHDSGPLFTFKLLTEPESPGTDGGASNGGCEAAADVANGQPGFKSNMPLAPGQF
Description: (§1) Membranes were prepared from COS-7 cells (African Green monkey kidney SV40-transformed cells) that had been transfected with one of the three α1-AR subtypes by the following method:
(§2) COS cells from ten 100 mm tissue culture plates were scraped into a 5 mL volume of TE (a mixture of 50 mM tris(hydroxymethyl)aminomethane hydrochloride (Tris-HCl) and 5 mM ethylenediaminetetraacetic acid (EDTA) at pH 7.4). The cell suspension was disrupted with a Brinkman Polytron (at a setting of 8) for 10 sec. The disrupted cells were centrifuged at 1000×g for 10 min at 4° C. Supernatants were centrifuged at 34,500×g for 20 min at 4° C. The membrane pellets were suspended in a 2 mL volume of TNE (a mixture of 50 mM Tris-HCl, 5 mM EDTA and 150 mM NaCl at pH7.4). An aliquot of the membrane suspension was stored at −70° C. until use. The protein concentration was determined using a BioRad “DC” protein assay kit following membrane solubilization with Triton X-100.
(§3) Triplicate determinations of radio-ligand binding in the presence of increasing concentrations of testing compound were made. The reagents were added to 96-well polypropylene plate wells. Each assay well contained 140 μL TNE, 25 μL ^125I-2-(β-4-hydroxyplenyl)ethylaminomethyltetralone (^125I-HEAT) (specific activity 2200 Ci/mmol, Dupont-New England Nuclear, 50 pM final), 10 μL testing compound dissolved in dimethyl sulfoxide (DMSO) (1 pM to 10 μM in half-log increments, final), and 25 μL appropriate α1-AR membrane subtype suspension in TNE (0.5 ng/μL for the α1a and α1b subtypes and 13 ng/μL for the α1d subtype). The plate was incubated at rt for 1 hr. The contents of the wells were filtered through a glass filter (type C) (GF/C) membrane Unifilter plate (Packard Instruments) using the Packard Filtermate cell harvester. The filter plates were dried in a vacuum oven for 30 min at 40° C. 25 μL Microscint 20 liquid scintillation fluid (Packard Instuments) was added to each well. The radioactive content was analyzed in the TopCount microplate scintillation counter (Packard Instruments).
(§4) The Ki values (in nM) shown in Table 1 were determined using GraphPad Prism software.

[2] = target: T2, α1a-AR (Homo sapiens, UniProt P35348); assay: α1-Adrenergic receptor radio-ligand (125I-HEAT) binding assay, α1a subtype; conditions: COS-7 cell membranes transfected with α1a-AR, 125I-HEAT 50 pM
T2 construct: expressed in transfected cells; host or cells: COS-7
T2 sequence (P35348 1-466): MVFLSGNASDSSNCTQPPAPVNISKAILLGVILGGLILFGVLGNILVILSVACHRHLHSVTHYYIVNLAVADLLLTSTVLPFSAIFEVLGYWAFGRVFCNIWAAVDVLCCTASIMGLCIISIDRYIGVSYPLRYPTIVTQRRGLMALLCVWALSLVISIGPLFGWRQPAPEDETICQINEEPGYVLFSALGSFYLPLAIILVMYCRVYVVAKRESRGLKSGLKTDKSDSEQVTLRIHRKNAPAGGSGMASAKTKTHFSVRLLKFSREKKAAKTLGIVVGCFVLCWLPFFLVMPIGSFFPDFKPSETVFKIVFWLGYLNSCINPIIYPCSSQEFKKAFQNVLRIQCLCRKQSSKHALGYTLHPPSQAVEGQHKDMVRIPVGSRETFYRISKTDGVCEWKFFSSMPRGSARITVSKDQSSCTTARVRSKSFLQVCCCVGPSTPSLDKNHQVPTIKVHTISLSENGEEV
Description: as §1, §2, §3, §4

[3] = target: T3, α1d-AR (Homo sapiens, UniProt P25100); assay: α1-Adrenergic receptor radio-ligand (125I-HEAT) binding assay, α1d subtype; conditions: COS-7 cell membranes transfected with α1d-AR, 125I-HEAT 50 pM
T3 construct: expressed in transfected cells; host or cells: COS-7
T3 sequence (P25100 1-572): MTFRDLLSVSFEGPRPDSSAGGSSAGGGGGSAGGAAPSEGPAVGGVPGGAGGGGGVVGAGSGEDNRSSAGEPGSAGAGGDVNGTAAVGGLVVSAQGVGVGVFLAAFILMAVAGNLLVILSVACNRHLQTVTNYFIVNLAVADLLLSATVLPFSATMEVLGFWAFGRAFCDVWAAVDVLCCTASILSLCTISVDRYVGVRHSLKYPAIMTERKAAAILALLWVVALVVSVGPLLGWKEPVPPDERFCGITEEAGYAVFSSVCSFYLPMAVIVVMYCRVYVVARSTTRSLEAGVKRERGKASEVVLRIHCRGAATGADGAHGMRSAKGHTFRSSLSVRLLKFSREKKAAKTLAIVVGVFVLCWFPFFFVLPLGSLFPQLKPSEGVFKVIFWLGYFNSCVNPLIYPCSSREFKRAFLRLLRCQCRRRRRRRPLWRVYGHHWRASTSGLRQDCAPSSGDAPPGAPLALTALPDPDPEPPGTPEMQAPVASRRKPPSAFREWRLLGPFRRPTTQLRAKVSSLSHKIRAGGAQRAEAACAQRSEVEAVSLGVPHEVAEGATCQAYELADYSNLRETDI
Description: as §1, §2, §3, §4

[4] = read-out: Receptor Binding, Ki α1b-AR
[5] = read-out: Receptor Binding, Ki α1a-AR
[6] = read-out: Receptor Binding, Ki α1d-AR

SMILES	Ki [1, 4]	Ki [2, 5]	Ki [3, 6]	Ki ([1]; Receptor Binding, Ki α1b-AR)	Ki ([2]; Receptor Binding, Ki α1a-AR)	Ki ([3]; Receptor Binding, Ki α1d-AR)
CC(C)Oc1ccccc1N1CCN(Cc2cccc(C(=O)N3CCc4cc(Cl)ccc43)c2)CC1 [Cpd 67, (5-chloro-2,3-dihydro-indol-1-yl)-{3-[4-(2-isopropoxy-phenyl)-piperazin-1-ylmethyl]-phenyl}-methanone]	1140 nM and 1260 nM	2.1 nM and 12 nM	14.7 nM and 22 nM	–	–	–
CC(C)Oc1ccccc1CN1CCN(Cc2cccc(C(=O)N3CCc4ccccc43)c2)CC1 [Cpd 56, (2,3-dihydro-indol-1-yl)-{3-[4-(2-isopropoxy-benzyl)-piperazin-1-ylmethyl]-phenyl}-methanone]	655 nM	1200 nM	1910 nM	–	–	–
CC(C)Oc1ccccc1N1CCN(Cc2cccc(C(=O)N3CCc4cc(S(=O)(=O)N(C)C)ccc43)c2)CC1 [Cpd 70, 1-{3-[4-(2-isopropoxy-phenyl)-piperazin-1-ylmethyl]-benzoyl}-2,3-dihydro-1H-indole-5-sulfonic acid dimethylamide]	1760 nM	107 nM	41 nM	–	–	–
CC(C)Oc1ccccc1CN1CCN(Cc2ccc(C(=O)N3CCc4ccccc43)cc2)CC1 [Cpd 52, (2,3-dihydro-indol-1-yl)-{4-[4-(2-isopropoxy-benzyl)-piperazin-1-ylmethyl]-phenyl}-methanone]	1730 nM	122 nM	159 nM	–	–	–
CC(C)COc1ccccc1N1CCN(Cc2cccc(C(=O)N3CCc4ccccc43)c2)CC1 [Cpd 65, (2,3-dihydro-indol-1-yl)-{3-[4-(2-isobutoxy-phenyl)-piperazin-1-ylmethyl]-phenyl}-methanone]	909 nM	65 nM	42 nM	–	–	–
COc1ccccc1C1CCN(Cc2ccc(C(=O)N3CCc4ccc(NC(=O)c5c(OC)cccc5OC)cc43)cc2)CC1 [Cpd 39, 2,6-dimethoxy-N-(1-{4-[4-(2-methoxy-phenyl)-piperidin-1-ylmethyl]-benzoyl}-2,3-dihydro-1H-indol-6-yl)-benzamide]	595 nM	74 nM	41 nM	–	–	–
Cc1ccc(OC(=O)Nc2ccc3c(c2)N(C(=O)c2cccc(CN4CCN(c5ccccc5OC(C)C)CC4)c2)CC3)cc1 [Cpd 12, (1-{3-[4-(2-isopropoxy-phenyl)-piperazin-1-ylmethyl]-benzoyl}-2,3-dihydro-1H-indol-6-yl)-carbamic acid p-tolyl ester]	–	–	–	495 nM	3.3 nM	5.7 nM

Now from value to molecule, other results behind:

Ki [1, 4]	Ki [2, 5]	Ki [3, 6]	SMILES	Ki ([1]; Receptor Binding, Ki α1b-AR)	Ki ([2]; Receptor Binding, Ki α1a-AR)	Ki ([3]; Receptor Binding, Ki α1d-AR)
208 nM	31 nM	1.5 nM	CC(C)Oc1ccccc1N1CCN(Cc2cccc(C(=O)N3CCc4ccc(NC(=O)Nc5c(F)cccc5F)cc43)c2)CC1 [Cpd 73, 1-(2,6-difluoro-phenyl)-3-(1-{3-[4-(2-isopropoxy-phenyl)-piperazin-1-ylmethyl]-benzoyl}-2,3-dihydro-1H-indol-6-yl)-urea]	–	–	–
684 nM	11 nM	16 nM	COc1cccc(OC)c1CNc1ccc2c(c1)N(C(=O)c1cccc(CN3CCN(c4ccccc4OC(C)C)CC3)c1)CC2 [Cpd 7, [6-(2,6-dimethoxy-benzylamino)-2,3-dihydro-indol-1-yl]-{3-[4-(2-isopropoxy-phenyl)-piperazin-1-ylmethyl]-phenyl}-methanone]	–	–	–
242 nM	5.9 nM	5.6 nM	Cc1ccc(S(=O)(=O)Nc2ccc3c(c2)N(C(=O)c2cccc(CN4CCN(c5ccccc5OC(C)C)CC4)c2)CC3)cc1 [Cpd 46, N-(1-{3-[4-(2-isopropoxy-phenyl)-piperazin-1-ylmethyl]-benzoyl}-2,3-dihydro-1H-indol-6-yl)-4-methyl-benzenesulfonamide]	–	–	–
379 nM	16.5 nM	11 nM	CC(C)Oc1ccccc1N1CCN(Cc2cccc(C(=O)N3CCc4cc(NCc5ccc6c(c5)OCO6)ccc43)c2)CC1 [Cpd 27, {5-[(benzo[1,3]dioxol-5-ylmethyl)-amino]-2,3-dihydro-indol-1-yl}-{3-[4-(2-isopropoxy-phenyl)-piperazin-1-ylmethyl]-phenyl}-methanone]	–	–	–
